Assays:
Test in all cases: kinobeads assay with mass spectrometry detection of kinases (kinase selectivity profile)
Assay type in all cases: binding
kinases (kinome) [1] = molecular target: T1, kinases (kinome) (Homo sapiens, UniProt O14965); details: AurA (Other), IPI00298940
T1 construct: determined in kinobeads assays with mass spectrometry detection of kinases as described previously; endogenous in cells; host or cells: cell lysate
T1 sequence (O14965 1-403): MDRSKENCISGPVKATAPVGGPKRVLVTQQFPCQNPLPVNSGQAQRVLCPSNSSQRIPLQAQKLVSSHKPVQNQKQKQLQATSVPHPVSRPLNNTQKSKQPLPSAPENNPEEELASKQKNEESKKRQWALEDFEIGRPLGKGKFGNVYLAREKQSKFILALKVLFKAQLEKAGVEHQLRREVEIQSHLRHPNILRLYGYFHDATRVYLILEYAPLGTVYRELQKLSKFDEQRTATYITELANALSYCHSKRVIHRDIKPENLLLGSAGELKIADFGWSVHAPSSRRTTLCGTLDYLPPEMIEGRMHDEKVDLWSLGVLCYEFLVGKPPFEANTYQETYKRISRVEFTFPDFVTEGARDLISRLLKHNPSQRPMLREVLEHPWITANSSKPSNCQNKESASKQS
Description: (§1) The protein kinase complement of the human genome (the kinome) was described previously (Manning et al., 2002. Science 298(5600):1912-1934). Sequence accession numbers are defined by the International Protein Index (IPI) (Kersey et al., 2004. Proteomics 4(7):1985-1988).

kinases (kinome) [2] = molecular target: T2, kinases (kinome) (Homo sapiens, UniProt O60885); details: BRD4 (Atypical), IPI00440727
T2 construct: determined in kinobeads assays with mass spectrometry detection of kinases as described previously; endogenous in cells; host or cells: cell lysate
Description: as §1

kinases (kinome) [3] = molecular target: T3, kinases (kinome) (Homo sapiens, UniProt P15056); details: BRAF (TKL), IPI00303797
T3 construct: determined in kinobeads assays with mass spectrometry detection of kinases as described previously; endogenous in cells; host or cells: cell lysate
Description: as §1

kinases (kinome) [4] = molecular target: T4, kinases (kinome) (Homo sapiens, UniProt P43405); details: SYK (TK), IPI00018597
T4 construct: determined in kinobeads assays with mass spectrometry detection of kinases as described previously; endogenous in cells; host or cells: cell lysate
Description: as §1

kinases (kinome) [5] = molecular target: T5, kinases (kinome) (Homo sapiens, UniProt Q04771); details: ALK2 (TKL), IPI00029219
T5 construct: determined in kinobeads assays with mass spectrometry detection of kinases as described previously; endogenous in cells; host or cells: cell lysate
T5 sequence (Q04771 21-509): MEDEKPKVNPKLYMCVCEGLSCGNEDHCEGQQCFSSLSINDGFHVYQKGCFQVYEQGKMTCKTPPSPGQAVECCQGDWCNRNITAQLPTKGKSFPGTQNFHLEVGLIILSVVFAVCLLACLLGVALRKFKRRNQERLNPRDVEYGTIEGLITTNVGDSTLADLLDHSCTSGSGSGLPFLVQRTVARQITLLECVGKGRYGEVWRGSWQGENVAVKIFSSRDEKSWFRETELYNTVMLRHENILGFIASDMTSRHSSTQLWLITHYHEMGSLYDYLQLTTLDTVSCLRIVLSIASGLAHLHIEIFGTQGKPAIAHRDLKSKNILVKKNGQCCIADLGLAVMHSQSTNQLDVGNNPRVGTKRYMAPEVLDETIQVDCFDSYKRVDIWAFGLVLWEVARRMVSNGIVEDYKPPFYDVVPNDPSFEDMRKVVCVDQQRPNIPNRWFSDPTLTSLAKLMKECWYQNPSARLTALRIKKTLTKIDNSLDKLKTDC
Description: as §1

kinases (kinome) [6] = molecular target: T6, kinases (kinome) (Homo sapiens, UniProt Q13315); details: ATM (Atypical), IPI00298306
T6 construct: determined in kinobeads assays with mass spectrometry detection of kinases as described previously; endogenous in cells; host or cells: cell lysate
T6 sequence (Q13315 whole entry): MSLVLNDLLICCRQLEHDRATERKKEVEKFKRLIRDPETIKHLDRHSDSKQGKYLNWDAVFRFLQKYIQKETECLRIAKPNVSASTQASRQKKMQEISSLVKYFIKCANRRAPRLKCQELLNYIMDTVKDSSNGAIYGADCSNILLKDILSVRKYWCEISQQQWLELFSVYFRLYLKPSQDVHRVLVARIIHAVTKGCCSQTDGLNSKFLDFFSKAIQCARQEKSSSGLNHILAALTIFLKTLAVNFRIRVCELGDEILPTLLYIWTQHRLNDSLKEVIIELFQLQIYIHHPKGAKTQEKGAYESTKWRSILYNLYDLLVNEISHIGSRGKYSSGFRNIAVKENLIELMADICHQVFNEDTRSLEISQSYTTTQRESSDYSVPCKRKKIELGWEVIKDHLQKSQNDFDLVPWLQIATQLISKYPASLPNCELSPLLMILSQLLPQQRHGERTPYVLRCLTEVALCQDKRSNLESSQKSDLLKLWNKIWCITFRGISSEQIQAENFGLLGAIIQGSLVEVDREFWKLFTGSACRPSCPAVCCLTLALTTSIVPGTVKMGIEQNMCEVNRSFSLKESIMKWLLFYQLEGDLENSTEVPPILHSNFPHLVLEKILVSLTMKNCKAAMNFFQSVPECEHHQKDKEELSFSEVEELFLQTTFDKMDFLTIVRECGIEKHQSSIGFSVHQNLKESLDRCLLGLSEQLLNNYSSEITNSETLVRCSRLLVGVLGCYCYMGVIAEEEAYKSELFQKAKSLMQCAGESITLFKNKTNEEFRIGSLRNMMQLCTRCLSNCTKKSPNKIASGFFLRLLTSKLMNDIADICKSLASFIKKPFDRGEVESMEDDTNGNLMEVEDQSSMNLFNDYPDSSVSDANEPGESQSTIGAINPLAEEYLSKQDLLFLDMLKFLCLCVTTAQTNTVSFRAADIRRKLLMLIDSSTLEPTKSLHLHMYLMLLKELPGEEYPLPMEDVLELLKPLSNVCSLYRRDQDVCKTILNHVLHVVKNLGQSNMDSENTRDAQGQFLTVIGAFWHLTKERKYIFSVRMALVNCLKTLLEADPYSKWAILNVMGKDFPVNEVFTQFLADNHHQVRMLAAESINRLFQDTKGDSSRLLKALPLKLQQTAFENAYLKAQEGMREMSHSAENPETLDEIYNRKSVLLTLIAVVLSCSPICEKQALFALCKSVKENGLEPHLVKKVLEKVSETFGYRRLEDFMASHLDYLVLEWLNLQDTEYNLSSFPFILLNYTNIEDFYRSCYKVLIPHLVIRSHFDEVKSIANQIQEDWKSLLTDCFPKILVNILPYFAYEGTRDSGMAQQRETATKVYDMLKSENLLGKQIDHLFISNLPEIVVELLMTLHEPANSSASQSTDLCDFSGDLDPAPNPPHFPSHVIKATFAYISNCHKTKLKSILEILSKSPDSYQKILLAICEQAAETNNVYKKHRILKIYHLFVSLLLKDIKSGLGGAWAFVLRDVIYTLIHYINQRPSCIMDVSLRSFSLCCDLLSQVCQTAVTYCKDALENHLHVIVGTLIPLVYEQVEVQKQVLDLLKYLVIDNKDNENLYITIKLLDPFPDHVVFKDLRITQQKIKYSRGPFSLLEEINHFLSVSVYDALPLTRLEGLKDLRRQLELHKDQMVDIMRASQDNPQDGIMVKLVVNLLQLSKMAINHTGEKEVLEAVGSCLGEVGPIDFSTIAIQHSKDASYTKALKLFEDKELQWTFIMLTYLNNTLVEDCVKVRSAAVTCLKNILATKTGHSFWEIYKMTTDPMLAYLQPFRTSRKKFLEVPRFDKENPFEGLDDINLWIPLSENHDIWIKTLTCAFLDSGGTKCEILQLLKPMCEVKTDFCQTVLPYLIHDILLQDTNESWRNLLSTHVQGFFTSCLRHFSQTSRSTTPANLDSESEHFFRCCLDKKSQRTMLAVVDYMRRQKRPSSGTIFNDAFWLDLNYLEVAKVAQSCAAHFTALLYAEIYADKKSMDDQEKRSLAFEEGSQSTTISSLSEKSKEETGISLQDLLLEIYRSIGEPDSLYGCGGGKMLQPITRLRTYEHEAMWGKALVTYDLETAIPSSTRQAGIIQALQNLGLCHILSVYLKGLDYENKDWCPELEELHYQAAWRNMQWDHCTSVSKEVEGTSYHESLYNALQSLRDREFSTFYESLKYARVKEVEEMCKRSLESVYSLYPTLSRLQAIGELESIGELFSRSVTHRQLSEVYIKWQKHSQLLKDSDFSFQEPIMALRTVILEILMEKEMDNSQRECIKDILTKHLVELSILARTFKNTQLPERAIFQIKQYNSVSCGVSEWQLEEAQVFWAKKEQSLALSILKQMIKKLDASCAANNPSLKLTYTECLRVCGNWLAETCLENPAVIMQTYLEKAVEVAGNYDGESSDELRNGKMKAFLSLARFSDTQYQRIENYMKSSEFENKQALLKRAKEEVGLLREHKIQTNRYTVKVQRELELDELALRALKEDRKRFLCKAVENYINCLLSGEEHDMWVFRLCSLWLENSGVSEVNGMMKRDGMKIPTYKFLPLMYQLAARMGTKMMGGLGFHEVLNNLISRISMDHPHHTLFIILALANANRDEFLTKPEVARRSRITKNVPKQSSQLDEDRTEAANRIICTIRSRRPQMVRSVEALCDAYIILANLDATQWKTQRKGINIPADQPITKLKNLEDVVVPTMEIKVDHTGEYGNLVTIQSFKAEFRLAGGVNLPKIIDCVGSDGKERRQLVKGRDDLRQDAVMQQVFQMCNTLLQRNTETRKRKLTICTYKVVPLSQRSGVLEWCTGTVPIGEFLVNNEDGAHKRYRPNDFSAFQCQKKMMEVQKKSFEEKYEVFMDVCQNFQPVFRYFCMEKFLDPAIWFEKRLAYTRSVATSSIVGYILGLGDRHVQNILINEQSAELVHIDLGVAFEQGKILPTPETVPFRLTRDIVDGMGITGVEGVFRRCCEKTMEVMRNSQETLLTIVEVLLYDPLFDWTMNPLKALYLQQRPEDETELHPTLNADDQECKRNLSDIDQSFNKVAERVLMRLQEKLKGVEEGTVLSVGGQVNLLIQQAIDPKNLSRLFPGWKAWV
Description: as §1

kinases (kinome) [7] = molecular target: T7, kinases (kinome) (Homo sapiens, UniProt Q13705); details: ACTR2B (TKL), IPI00437565
T7 construct: determined in kinobeads assays with mass spectrometry detection of kinases as described previously; endogenous in cells; host or cells: cell lysate
T7 sequence (Q13705 19-512): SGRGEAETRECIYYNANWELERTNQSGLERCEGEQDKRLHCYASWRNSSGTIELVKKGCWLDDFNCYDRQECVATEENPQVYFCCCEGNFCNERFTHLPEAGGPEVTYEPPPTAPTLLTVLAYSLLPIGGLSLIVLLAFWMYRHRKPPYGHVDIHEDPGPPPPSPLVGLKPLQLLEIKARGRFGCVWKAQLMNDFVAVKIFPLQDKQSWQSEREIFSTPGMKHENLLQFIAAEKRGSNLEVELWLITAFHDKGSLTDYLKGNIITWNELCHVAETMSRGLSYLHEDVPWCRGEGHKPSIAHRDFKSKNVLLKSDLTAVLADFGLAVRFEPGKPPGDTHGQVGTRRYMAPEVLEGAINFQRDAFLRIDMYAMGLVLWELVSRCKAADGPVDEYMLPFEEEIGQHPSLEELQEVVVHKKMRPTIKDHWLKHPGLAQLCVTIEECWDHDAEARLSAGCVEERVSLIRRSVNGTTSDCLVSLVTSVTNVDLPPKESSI
Description: as §1

kinases (kinome) [8] = molecular target: T8, kinases (kinome) (Homo sapiens, UniProt Q9H0K1); details: QIK (CAMK), IPI00465291
T8 construct: determined in kinobeads assays with mass spectrometry detection of kinases as described previously; endogenous in cells; host or cells: cell lysate
T8 sequence (Q9H0K1 whole entry): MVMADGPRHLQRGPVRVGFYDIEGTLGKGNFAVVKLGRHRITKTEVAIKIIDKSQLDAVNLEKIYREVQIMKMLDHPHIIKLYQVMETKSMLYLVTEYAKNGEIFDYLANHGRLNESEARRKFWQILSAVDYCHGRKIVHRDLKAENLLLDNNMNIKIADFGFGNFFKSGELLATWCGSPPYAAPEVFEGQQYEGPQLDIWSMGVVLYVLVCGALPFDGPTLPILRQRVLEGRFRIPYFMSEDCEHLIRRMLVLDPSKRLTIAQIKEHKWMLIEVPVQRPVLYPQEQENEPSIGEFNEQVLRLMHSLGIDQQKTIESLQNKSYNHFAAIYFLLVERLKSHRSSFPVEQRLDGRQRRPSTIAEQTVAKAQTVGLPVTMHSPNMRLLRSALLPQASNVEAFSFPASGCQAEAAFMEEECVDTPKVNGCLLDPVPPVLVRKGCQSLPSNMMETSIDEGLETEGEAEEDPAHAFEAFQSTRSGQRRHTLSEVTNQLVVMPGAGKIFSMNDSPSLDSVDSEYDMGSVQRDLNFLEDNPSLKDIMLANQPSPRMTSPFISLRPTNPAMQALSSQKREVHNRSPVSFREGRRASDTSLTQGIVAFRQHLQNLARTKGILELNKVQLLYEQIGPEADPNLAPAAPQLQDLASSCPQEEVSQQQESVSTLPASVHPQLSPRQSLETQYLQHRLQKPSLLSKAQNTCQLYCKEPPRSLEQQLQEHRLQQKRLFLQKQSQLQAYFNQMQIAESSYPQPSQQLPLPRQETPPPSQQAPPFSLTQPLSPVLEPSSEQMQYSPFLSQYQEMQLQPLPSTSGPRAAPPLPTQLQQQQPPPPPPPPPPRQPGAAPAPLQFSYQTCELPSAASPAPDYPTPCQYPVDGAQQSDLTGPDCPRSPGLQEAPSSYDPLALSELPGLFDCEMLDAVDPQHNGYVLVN
Description: as §1

kinases (kinome) [9] = molecular target: T9, kinases (kinome) (Homo sapiens, UniProt Q9UL54); details: TAO2 (STE), IPI00006283
T9 construct: determined in kinobeads assays with mass spectrometry detection of kinases as described previously; endogenous in cells; host or cells: cell lysate
T9 sequence (Q9UL54 1-1235): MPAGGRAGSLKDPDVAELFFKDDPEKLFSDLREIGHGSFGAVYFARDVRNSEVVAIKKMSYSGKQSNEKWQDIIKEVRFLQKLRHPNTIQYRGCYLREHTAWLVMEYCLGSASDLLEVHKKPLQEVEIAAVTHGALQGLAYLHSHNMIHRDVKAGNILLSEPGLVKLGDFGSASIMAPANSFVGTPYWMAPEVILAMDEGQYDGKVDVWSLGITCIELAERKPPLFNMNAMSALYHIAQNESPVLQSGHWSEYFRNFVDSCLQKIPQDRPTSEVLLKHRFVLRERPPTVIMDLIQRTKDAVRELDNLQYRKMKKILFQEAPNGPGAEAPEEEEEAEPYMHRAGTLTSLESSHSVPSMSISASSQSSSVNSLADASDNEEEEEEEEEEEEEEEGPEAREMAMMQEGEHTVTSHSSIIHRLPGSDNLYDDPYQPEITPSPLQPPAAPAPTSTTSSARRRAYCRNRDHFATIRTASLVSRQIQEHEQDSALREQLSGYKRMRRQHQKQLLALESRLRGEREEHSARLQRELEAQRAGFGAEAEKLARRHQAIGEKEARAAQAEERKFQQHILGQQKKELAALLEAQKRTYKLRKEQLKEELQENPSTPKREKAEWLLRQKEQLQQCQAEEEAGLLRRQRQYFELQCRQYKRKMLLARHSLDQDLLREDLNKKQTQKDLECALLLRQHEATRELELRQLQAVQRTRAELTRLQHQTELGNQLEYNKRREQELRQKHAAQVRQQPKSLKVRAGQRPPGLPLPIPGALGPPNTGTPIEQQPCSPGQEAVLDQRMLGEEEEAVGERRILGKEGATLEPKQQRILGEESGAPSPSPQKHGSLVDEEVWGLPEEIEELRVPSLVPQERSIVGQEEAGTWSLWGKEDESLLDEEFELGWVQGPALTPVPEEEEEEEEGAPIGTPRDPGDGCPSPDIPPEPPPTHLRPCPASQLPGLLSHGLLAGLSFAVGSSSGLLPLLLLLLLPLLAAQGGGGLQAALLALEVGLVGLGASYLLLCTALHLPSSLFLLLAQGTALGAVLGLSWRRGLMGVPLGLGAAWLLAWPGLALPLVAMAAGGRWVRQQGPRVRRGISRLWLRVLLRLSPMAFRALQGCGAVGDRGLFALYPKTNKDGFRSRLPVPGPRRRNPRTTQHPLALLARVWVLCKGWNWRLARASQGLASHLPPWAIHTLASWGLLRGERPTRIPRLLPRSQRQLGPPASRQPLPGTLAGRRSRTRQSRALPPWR
Description: as §1

Measured: IC50

C[C@H]1COCCN1c1nc(-c2ccc(NC(=O)NC3CC3)cc2)cc(-c2cccnc2S(C)(=O)=O)n1 [Example 46, (S)-1-cyclopropyl-3-(4-(2-(3-methylmorpholino)-6-(2-(methylsulfonyl)pyridin-3-yl)pyrimidin-4-yl)phenyl)urea]
> 10 µM: all assays above

C[C@H]1COCCN1c1nc(-c2ccc(NC(=O)NC3CC3)cc2)cc(-c2ccccc2S(C)(=O)=O)n1 [Example 4, (S)-1-cyclopropyl-3-(4-(2-(3-methylmorpholino)-6-(2-(methylsulfonyl)phenyl)pyrimidin-4-yl)phenyl)urea]
> 10 µM: all assays above

C[C@H]1COCCN1c1nc(-c2ccc(NC(=O)N[C@H]3CCC[C@@H]3O)cc2)cc(-c2cc(F)ccc2S(C)(=O)=O)n1 [Example 76, 1-(4-(6-(5-fluoro-2-(methylsulfonyl)phenyl)-2-((S)-3-methylmorpholino)pyrimidin-4-yl)phenyl)-3-((1S,2S)-2-hydroxycyclopentyl)urea]
> 10 µM: all assays above

CCNC(=O)Nc1ccc(-c2cc(-c3ccccc3C#N)nc(N3CCOC[C@@H]3C)n2)cc1 [Example 8, (S)-1-(4-(6-(2-cyanophenyl)-2-(3-methylmorpholino)pyrimidin-4-yl)phenyl)-3-ethylurea]
> 10 µM: all assays above

C[C@H]1COCCN1c1cc(-c2ccccc2S(C)(=O)=O)nc(-c2ccc(NC(=O)NC3CC3)cc2)n1 [Example 6, (S)-1-cyclopropyl-3-(4-(4-(3-methylmorpholino)-6-(2-(methylsulfonyl)phenyl)pyrimidin-2-yl)phenyl)urea]
> 10 µM: all assays above

C[C@H]1COCCN1c1cc(-c2ccccn2)nc(-c2ccc(NC(=O)NCCO)cc2)n1 [Example 43, (S)-1-(2-hydroxyethyl)-3-(4-(4-(3-methylmorpholino)-6-(pyridin-2-yl)pyrimidin-2-yl)phenyl)urea]
> 10 µM: all assays above

C[C@H]1COCCN1c1nc(-c2ccc(NC(=O)NC3CC3)cc2)cc(-c2cc(F)ccc2S(C)(=O)=O)n1 [Example 40, (S)-1-cyclopropyl-3-(4-(6-(5-fluoro-2-(methylsulfonyl)phenyl)-2-(3-methylmorpholino)pyrimidin-4-yl)phenyl)urea]
> 10 µM: all assays above

— patent US9249129B2, “Morpholino substituted urea derivatives as mTOR inhibitors” (CELLZOME LIMITED, priority 2010, dated 2016)
